Assay results reported in patent publication US20140220566A1, “MATERIALS AND METHODS FOR DETERMINING SENSITIVITY POTENTIAL OF COMPOUNDS” (ELECTROPHORETICS LIMITED, priority 2011, published 2014).

Tests used:
Myeloperoxidase (MPO) = assay: Myeloperoxidase ELISA in supernatant of Mutz-3 cells; assay type: cell-based, human; conditions: FIG. 4
Source text: (§1) As an alternative approach to find predictive markers for sensitizing potential we explored the potential of cell culture supernatants as a source of markers for chemical safety by adopting a more targeted approach using commercially available immunoassays to measure the levels of three known inflammatory markers. The three proteins to be measured by ELISA were selected on the basis of a review of literature references to secreted inflammatory protein response to chemical sensitizer. Cells were cultured as described in Example 1 and the spent medium removed for direct analysis by ELISA. All kits were used in accordance with manufacturer's instructions.
MPO is a peroxidase enzyme which is stored in lysosomes and released during inflammation Myeloperoxidase was measured by ELISA (Assay-Designs) (FIG. 4).

MUTZ-3 cells = assay: PLS score plot of proteomic response, fourth study; assay type: cell-based, human; conditions: FIG. 3, ANOVA filtered protein list
Protocol: In the fourth study (40-002—8) Mutz-3 cells were incubated with 2 contact sensitizer (120 μM cinnamic aldehyde, 4 μM DNCB), 1 respiratory sensitizer (150 μM TMA), 1 irritant (200 μM SDS) and 1 controls (untreated).
A preferred method for classification of chemicals is employing partial least squares regression analysis (PLS). PLS discriminant analysis identifies the most important classifiers from the list of interest. A model was built using the response variables (y) highlighted in red and the ANOVA filtered proteins as predictors (x). The first PLS components (x-axis) was plotted against the second PLS component (y-axis) and separated the biomarkers having a role in classifying the three experimental groups “control”, “irritant” and sensitizer”.
In the score plot each point represents one 1 sample. Based on the ANOVA filtered protein list samples a good separation between control, sensitizer and irritant treated samples was achieved.

[1] = system: Calprotectin (S100A8/S100A9); assay: Calprotectin immunoassay in supernatant of Mutz-3 cells; assay type: cell-based, human; conditions: FIG. 5
Source text: as §1
Calprotectin is heterodimer of S100A8/S100A9 was measured in supernatant of Mutz-3 cells by a commercially available immunoassay (Immundiagnostik AG, Bensheim, Germany) (FIG. 5). Calprotectin is actively secreted by phagocytes in response to stress and binds to Toll-like receptor 4 (TLR4). Toll-like receptors play an important role in the innate immune system and activation of TLR4 by calprotectin further amplifies inflammation (Ehrchen et al. 2009). TLR4 and interleukin 12 double knock-out mice, show a marked decrease of DC-sensitization by a broad range of different sensitizers including 2,4,6-trinitro-1-chlorobenzene (TNCB), oxazolone, and fluorescein isothiocyanate (Martin et al. 2008). […]

dendritic cell lines = conditions: Mitjans et al. 2009; cited from earlier work

Row | SMILES | MPO release into supernatant of Mutz-3 cells (Myeloperoxidase (MPO)) | relative distance of treated samples from control in PLS score plot (MUTZ-3 cells) | S100A8/S100A9 (calprotectin) levels in supernatant of Mutz-3 cells [1] | response of the IL-8 assay (dendritic cell lines)
1 | O=[N+]([O-])c1ccc(Cl)c([N+](=O)[O-])c1 [DNCB, 1-chloro-2,4-dinitrobenzene] | activates an inflammatory pathway involving release of the peroxidase enzyme MPO | greatest relative distance from the control | modulated | –
2 | O=C(O)c1ccc2c(c1)C(=O)OC2=O [TMA, Trimellitic anhydride] | does not activate this pathway | smaller distance to control sample | – | fails to respond
